Results published in paper PMC10392864, “Chukrasia tabularis limonoid plays anti-inflammatory role by regulating NF-κB signaling pathway in lipopolysaccharide-induced macrophages” (Food & Nutrition Research, 2023).
Where two headings read alike, the source gives them in different places. One block for each molecule: values may come before it.

Experiments:
xylene-induced ear edema = test: Ear edema induced by xylene in mice; format: in vivo; conditions: 200 mg/kg intragastric, 1 h before xylene, ears weighed 1 h after xylene
Excerpt: Male ICR mice (18–20 g) were provided by the Laboratory Animal Center, Fujian Medical University. […] One hour after xylene treatment, the mice were sacrificed by cervical dislocation. […] The weight difference of two plugs was used to measure the edema response (Table S1). Animal care and use complied with institutional guidelines, and the program was affirmed by the Experimental Animal Management Committee of Fujian Medical University.

[1] = test system: LPS-induced NO production in RAW264.7 cells; test: LPS-induced NO production in RAW264.7 cells (Griess reaction); format: cell-based; conditions: RAW264.7 cells, LPS 2 µg/mL, supernatant after 24 h, read-out: IC50, inhibitory activity on LPS-induced NO production in RAW264.7 cells
Protocol: The inhibitory activities of compounds 1–16 on LPS stimulated macrophages was determined by Griess reaction. The NO content was detected by the NO kit according to the protocol described earlier ([23]). RAW264.7 cells obtained from the China Center for Cultivated Studies (Shanghai, China) were maintained in DMEM containing 10% FBS, and under 5% CO2 at 37°C. Briefly, the cells were seeded in a 96-well plate (1 × 10^5 cells/well), after 8 h of pre-incubation under 5% CO2 at 37°C, compounds 1–16 were added to the well plate, respectively, for 12 h. […] The supernatant of the cell culture were collected 24 h later.

Hela (cervical) cells = test: Cytotoxicity, SRB method, Hela; format: cell-based, human
Protocol: (§1) Huh-7 (hepatoma), MCF-7 (human breast), KB (oral epithelial), Hela (cervical), H460 (lung), A-549 (lung), and HepG2 (hepatocellular) cancer cell lines (provided by Shanghai Cell Bank) were maintained in RPMI 1640 at 37 ℃, supplemented with 10% FBS. Cytotoxicity was determined by the SRB method, with 5-fluorouracil (5-FU) as a positive control. The IC50 value was calculated using the GraphPad prism program.

[2] = test system: Huh7, HepG2, KB, H460, Hela, A-549 and MCF-7 tumor cell lines; test: Cytotoxicity, SRB method, statements on all seven tumor cell lines; format: cell-based, human; conditions: for cytotoxicity on seven tumor cell lines (in words): Huh7, HepG2, KB, H460, Hela, A-549, MCF-7; for IC50: all seven cell lines, SRB method, footnote of Table S3, read-out: IC50, cytotoxicity against all cell lines tested
Protocol: The cytotoxicity of the separated compounds was assessed against seven tumor cell lines, Huh7, HepG2, KB, H460, Hela, A-549 and MCF-7 ([40], [41]).
as §1

[3] = test system: HepG2 (hepatocellular) cells; test: Cytotoxicity, SRB method, HepG2; format: cell-based, human
Protocol: as §1

[4] = test system: MCF-7 (human breast) cells; test: Cytotoxicity, SRB method, MCF-7; format: cell-based
Protocol: as §1

[5] = test system: KB (oral epithelial) cells; test: Cytotoxicity, SRB method, KB; format: cell-based, human
Protocol: as §1

A-549 (lung) cells = test: Cytotoxicity, SRB method, A549; format: cell-based, human
Protocol: as §1

[6] = Cytotoxicity, SRB method, Huh-7; format: cell-based, human; conditions: human, Huh-7 (hepatoma) cells
Protocol: as §1

[7] = Cytotoxicity, SRB method, Hela; format: cell-based, human; conditions: human, Hela (cervical) cells
Protocol: as §1

[8] = Cytotoxicity, SRB method, HepG2; format: cell-based, human; conditions: human, HepG2 (hepatocellular) cells
Protocol: as §1

[9] = Cytotoxicity, SRB method, H460; format: cell-based, human; conditions: human, H460 (lung) cells
Protocol: as §1

[10] = Cytotoxicity, SRB method, MCF-7; format: cell-based, human; conditions: human, MCF-7 (human breast) cells
Protocol: as §1

[11] = Cytotoxicity, SRB method, KB; format: cell-based, human; conditions: human, KB (oral epithelial) cells
Protocol: as §1

[12] = Cytotoxicity, SRB method, A549; format: cell-based, human; conditions: human, A-549 (lung) cells
Protocol: as §1

Huh-7 (hepatoma) cells = test: Cytotoxicity, SRB method, Huh-7; format: cell-based, human
Protocol: as §1

H460 (lung) cells = test: Cytotoxicity, SRB method, H460; format: cell-based, human
Protocol: as §1

Molecule: CC(=O)Oc1ccccc1C(=O)O [Aspirin]
Edema Degree (±SD) (xylene-induced ear edema): 4.99 ± 0.30 mg
Inhibition Rate of ear edema (xylene-induced ear edema): 36.30%

Molecule: COC(=O)CC1C2(C)CC34OC5(C)OC6(C7CC(=O)OC(C8=CC(=O)OC8O)C7(C)CCC6(O5)C13C)C(OC(=O)C(C)C)C4(O)C2OC(=O)C(C)C (stereo not shown) [Compound 1, Phragmalin A]
IC50 ([1]; Mus musculus): 10.3 ± 0.39 µM

Molecule: O=c1[nH]cc(F)c(=O)[nH]1 [5-Fluorouracil, 5-fluorouracil, reference compound]
IC50 [6]: 36.2 ± 4.17 µM
IC50 [7]: 2.31 ± 0.98 µM
IC50 [8]: 30.5 ± 1.54 µM
IC50 [9]: 13.7 ± 2.85 µM
IC50 [10]: 23.4 ± 1.22 µM
IC50 [11]: 19.5 ± 1.24 µM
IC50 [12]: 36.2 ± 1.73 µM

Molecule: CCC(=O)OC1C2(O)C(OC(=O)CC(C)C)C3(C)CC24OC2(C)OC15C1CC(=O)OC(C6=CC(O)OC6=O)C1(C)CCC5(O2)C4(C)C3CC(=O)OC (stereo not shown) [Compound 3, Chukrasin G]
IC50 [6]: > 100 µM
IC50 [7]: > 100 µM
IC50 [8]: 99.4 ± 10.6 µM
IC50 [9]: > 100 µM
IC50 ([1]; Mus musculus): 10.5 ± 0.98 µM
IC50 [10]: > 100 µM
IC50 [11]: > 100 µM
IC50 [12]: > 100 µM

Molecule: COc1ccc2c(c1)c(CC(=O)O)c(C)n2C(=O)c1ccc(Cl)cc1 [Indomethacin, reference compound]
IC50 ([1]; Mus musculus): 26.2 ± 1.56 µM

Molecule: C[C@@H](C[C@@H](O)[C@H](O)C(C)(C)O)[C@@H]1CC[C@]2(C)C3=CC[C@H]4C(C)(C)C(=O)CC[C@]4(C)[C@H]3CC[C@@]12C [Compound 15, piscidinol A]
IC50 [1]: 33.6 ± 4.77 µM

Molecule: COC(=O)CC1C2(C)CC34OC5(C)OC6(C7CC(=O)OC(c8ccoc8)C7(C)CCC6(O5)C13C)C(OC(=O)C(C)C)C4(O)C2OC(=O)C(C)C (stereo not shown) [Compound 5, phragmalin, 3, 30-di-isobutyrates]
IC50 (Huh-7 (hepatoma) cells): > 100 µM
IC50 (Hela (cervical) cells): > 100 µM
IC50 [3]: 78 ± 12.7 µM
IC50 (H460 (lung) cells): > 100 µM
IC50 [1]: 35.6 ± 7.23 µM
IC50 [4]: > 100 µM
IC50 [5]: > 100 µM
IC50 (A-549 (lung) cells): > 100 µM

Molecule: 21β-methoxy-25-ene-bitrinonediol [Compound 7]
IC50 (Huh-7 (hepatoma) cells): 94.7 ± 12.5 µM
IC50 (Hela (cervical) cells): 58.4 ± 9.09 µM
cytotoxicity on seven tumor cell lines (in words) [2]: moderate cytotoxicity
IC50 [3]: > 100 µM
IC50 (H460 (lung) cells): > 100 µM
IC50 [1]: > 100 µM
IC50 [4]: > 100 µM
IC50 [5]: 40.9 ± 6.56 µM
IC50 (A-549 (lung) cells): > 100 µM

Molecule: CC(C)(O)[C@@H](O)[C@H]1C[C@@H]([C@@H]2CC[C@]3(C)C4=CC[C@H]5C(C)(C)C(=O)CC[C@]5(C)[C@H]4CC[C@@]23C)[C@H](O)O1 [Compound 11, melianodiol]
IC50 (Huh-7 (hepatoma) cells): 79.8 ± 9.24 µM
IC50 (Hela (cervical) cells): 86.3 ± 9.28 µM
cytotoxicity on seven tumor cell lines (in words) [2]: potent inhibitory activities
IC50 [3]: 80 ± 5.26 µM
IC50 (H460 (lung) cells): 73.2 ± 10.5 µM
IC50 [1]: 13.3 ± 2.67 µM
IC50 [4]: 52.6 ± 7.2 µM
IC50 [5]: 63.5 ± 8.25 µM
IC50 (A-549 (lung) cells): 45.1 ± 6.33 µM

Now from value to molecule, other results behind:

IC50 [1]: 52.5 ± 8.98 µM
Molecule: 21β- methylmelianodiol [Compound 9]
IC50 (Hela (cervical) cells): 60 ± 4.19 µM
cytotoxicity on seven tumor cell lines (in words) [2]: potent inhibitory activities
IC50 [3]: 44.3 ± 6 µM
IC50 [4]: > 100 µM
IC50 [5]: 56.6 ± 8.3 µM
IC50 (A-549 (lung) cells): 66 ± 10.1 µM

IC50 [1]: 11.2 ± 1.12 µM
Molecule: 3R, 23S, 24R, 25- tetraol- 7- glyoxiene [Compound 14]

IC50 [1]: > 100 µM
Molecule: CC1(C)OC[C@H]([C@@H]2CC[C@]3(C)C4=CC[C@H]5C(C)(C)C(=O)CC[C@]5(C)[C@H]4CC[C@@]23C)C[C@@H](O)[C@@H]1O [Compound 16, hispidone]

IC50 [1]: 95.1 ± 9.4 µM
Molecule: 24-hydroxyl-7, 25-dien-3-one [Compound 10]
IC50 [2]: > 100 µM

IC50 [1]: 35.6 ± 4.29 µM
Molecule: CC(C)(O)C1OCC(C2CCC3(C)C4=CCC5C(C)(C)C(=O)CCC5(C)C4CCC23C)CC1O (stereo not shown) [Compound 6, bourjotinolone A]
IC50 (Huh-7 (hepatoma) cells): 29.6 ± 7.69 µM
IC50 (Hela (cervical) cells): 29.3 ± 7.11 µM
cytotoxicity on seven tumor cell lines (in words) [2]: potent inhibitory activities
IC50 [3]: 59.3 ± 4.67 µM
IC50 [4]: > 100 µM
IC50 (A-549 (lung) cells): 43.6 ± 10.6 µM

IC50 [1]: 24.9 ± 4.6 µM
Molecule: CO[C@H]1O[C@@H]([C@H](O)C(C)(C)OC)C[C@H]1[C@@H]1CC[C@]2(C)C3=CC[C@H]4C(C)(C)C(=O)CC[C@]4(C)[C@H]3CC[C@@]12C [Compound 13, 21β, 25-dimethylmelianodiol]

IC50 [1]: 13.9 ± 5.33 µM
Molecule: CO[C@@H]1O[C@@H]([C@H](O)C(C)(C)OC)C[C@H]1[C@@H]1CC[C@]2(C)C3=CC[C@H]4C(C)(C)C(=O)CC[C@]4(C)[C@H]3CC[C@@]12C [Compound 12, 21α, 25-dimethyl-melianodiol]

IC50 [1]: 21.9 ± 5.61 µM
Molecule: COC(=O)CC1C2(C)CC34OC5(C)OC6(C7CC(=O)OC(C8=CC(O)OC8=O)C7(C)CCC6(O5)C13C)C(OC(=O)C(C)C)C4(O)C2OC(=O)C(C)C (stereo not shown) [Compound 4, phragmalin, 22, 23-dihydro-23-hydroxy-21-oxo-3, 30-di-isobutyrates]
IC50 [2]: > 100 µM

IC50 [1]: 46.1 ± 6.11 µM
Molecule: C=C(C)C(O)C(O)CC(C)C1CCC2(C)C3=CCC4C(C)(C)C(=O)CCC4(C)C3CCC12C (stereo not shown) [Compound 8, (13a, 14b, 17a, 20S, 23R, 24R)-23, 24-dihydro-xylanosta-7, 25-dien-3-one]
IC50 [2]: > 100 µM
